Source: US20240335465A1 (University of Virginia Patent Foundation, priority 2021, published 2024)

How the values were obtained:
DDR signaling = DDR signaling immunoblot in HEK293 cells; assay type: cell-based, human; details: HEK293, 4 hours post transfection
[1] = system: one-cell fertilized C57BL/6J embryos; assay: CRISPR/Cas9 mediated gene editing in mouse embryos; assay type: cell-based; details: Rosa26 locus, 1 fmole/embryo cGAMP
Experimental: CRISPR/Cas9 mediated gene editing in mouse embryos: Target sites were selected and gRNAs for these target sites were synthesized via in vitro transcription followed by column clean up and ethanol precipitation purification. One-cell fertilized C57BL/6J embryos were microinjected with a mixture of gRNA (50 ng/μl), ssODN (50 ng/μl, IDT, Table 2), and Cas9 protein (40 ng/μl, PNA Bio). […] Injected embryos were cultured to blastocysts then lysed to isolate genomic DNA. The edited locus (Rosa26) was amplified via PCR, and samples were indexed, pooled and run on a MiSeq Nano 2×250 Reagent Kit. Demultiplexed data was analyzed with CRISPResso (Pinello et al., 2016). Reads ambiguously categorized as “HDR/NHEJ” were manually sorted using a window 30 bp wide flanking the cut site, where reads identical to the expected HDR sequence were recategorized accordingly. Samples with fewer than 100 reads were excluded from analysis.

THP1 cells = assay: CellTiter 96 AQueous One Solution Cell Proliferation (MTS) assay; assay type: cell-based, human
Experimental: Cell Viability Assay: MTS assays were performed using the CellTiter 96 AQueous One Solution Cell Proliferation Assay (Promega) according to the manufacturer's instructions. […] 48 hours the later MTS assay was performed according the to manufacturer's protocol.

[2] = system: hRPE and U2OS-STING cells; assay: EdU incorporation assay; assay type: cell-based, human; details: 18 hours
Description: EdU incorporated cells were detected by confocal microscopy after Click-iT® EdU labeling following the manufacturer's protocol (Click-iT™ EdU Alexa Fluor™ 594 Imaging Kit, Thermo Fisher Cat #C10339).

NAD^+ = assay: NAD+ quantification; assay type: cell-based, human; details: WT and STING−/− THP1, cGAMP
cell cycle progression = assay: Cell cycle analysis by flow cytometry (BrdU, propidium iodide); assay type: cell-based, human
Experimental: Cells were washed with cold PBS and resuspended in 0.5 ml PBS to achieve a single cell suspension. Cells were fixed in a tube containing 4.5 ml 70% ethanol kept at 4° C. overnight. Cells were collected by centrifugation at 500 g for 5 minutes and washed twice with PBS. Washed cells were then stained with 1 ml of freshly prepared staining solution containing propidium iodide (10 μg/ml), DNase-free RNaseA (100 μg/ml), and 0.1% (v/v) Triton X-100 before being subjected to flow cytometry measurement. To determine percentage of cell population in various cell cycle stage, ˜10,000-30,000 cells were acquired on an Attune NxT cytometer and analyzed using FCS Express software. Cell cycle analysis was performed on propidium iodide stained cells and single cell events were determined by gating on the area against the width of the propidium iodide pulse signal. DNA cell cycle modeling and fit was performed using the Multicycle AV plugin (Phoenix Flow Systems).
Cells were fixed and stained to detect BrdU incorporation by flow cytometry following the manufacturer's protocol (FITC BrdU Flow Kit, BD Biosciences, Cat #559619).

HEK293-TrLR cells = assay: HDR and NHEJ assay using Traffic Light Reporter; assay type: cell-based, human
Experimental: TrLR-integrated HEK293 cells were selected through exposure to 5 μg/ml puromycin for 2 weeks. […] 8 hours following this procedure, cells were transfected with pCVL SFFV d14GFP Donor (Addgene Cat #31475), pCBASceI (Addgene Cat #26477)), or Donor+SceI using Lipofectamine 3000. 72 hours post-transfection, cells were trypsinized, collected, and analyzed with an Attune NxT flow cytometer (Thermofisher). To quantify the DNA repair events, ˜10,000-30,000 cells were acquired on an Attune NxT cytometer and analyzed using FCS Express software. Single cell events were determined by gating on the area against the width of the forward scatter pulse signal. Debris removal was performed by excluding events with very low forward and side scatter. For determining % of GFP and mCherry positive cells we established positive and negative populations using mock transfections as negative controls and GFP or mCherry transfected samples as Fluorescence Minus One controls.

γH2AX = γH2AX immunofluorescence (human RPE, THP1 cells); assay type: cell-based
Experimental: Immunofluorescence Staining: 16,500 adherent cells/cm^2 were plated on a gelatin coated 8-chamber slide (VWR, Catalogue #62407-296) and treated as indicated. Media was removed and cells were washed with 1×PBS with Ca^2+/Mg^2+ and fixed with 4% PFA for 20 minutes. Fixed cells were permeabilized with PBS+0.1% Triton-X and washed 3 times with PBS+0.1% Tween20. After treatment as indicated, non-adherent THP1 cells were collected by centrifugation, washed in cold PBS and fixed in PFA. Post-fixation, they were washed with PBS, spotted on gelatin coated “PTFE” Printed Slides (Electron Microscopy Sciences, Cat #63424-06), and air-dried. For γH2AX staining, permeabilized cells were blocked in Serum-free DAKO Protein Block (Agilent, Catalogue #X0909) for 1 hr at room temperature. Cells were incubated in primary antibody (γH2AX, 1:500; anti-HA, 1:100; Table 1) in DAKO antibody diluent at 4° C. overnight on a rocker platform. U2OS-STING cells undergoing Rad51 staining were first fixed in methanol for 20 minutes in −20° C., blocked for 1 hr with donkey block (2% normal donkey serum, 1% BSA, 0.1% Triton X 100, 0.05% Tween20, 0.05% Sodium Azide in PBS), then finally incubated in an anti-Rad51 antibody overnight at 4° C. (Bio-academia Cat #70-001, 1:6000 in 5% milk in TBST). For RPA70 staining, cells were fixed in 4% PFA at room temperature for 20 minutes and blocked in Cell Signaling blocking buffer (1×PBS/5% normal donkey serum/0.3% Triton™ X-100) for 1 hr in room temperature then incubated in an RPA70 antibody (Cell Signaling Cat #2267, 1:50 in blocking buffer) overnight at 4° C. Primary antibody was washed 3 times and incubated with secondary antibodies (Invitrogen, Alexa 555, 488) for 1 hr at room temperature. Coverslips were mounted on the cells with ProLong™ Gold Antifade mounting media with DAPI (Thermofisher, Catalogue #P36935). All images were obtained by confocal microscopy (Nikon, C2).

Question: How did the “phosphorylation status of H2AX, STING, and STAT2” value (DDR signaling) turn out when Nc1nc2c(ncn2[C@@H]2O[C@@H]3COP(=O)(O)O[C@H]4[C@@H](O)[C@H](n5cnc6c(N)ncnc65)O[C@@H]4COP(=O)(O)O[C@@H]2[C@@H]3O)c(=O)[nH]1 [cGAMP, cyclic guanosine monophosphate-adenosine monophosphate] was run?
Answer: respond normally to cGAMP stimulation

Question: And the “CRISPR/Cas9-mediated HDR editing” value [1]?
Answer: significantly diminished

Question: What about the “non-homologous end joining (NHEJ)” value [1] of the same compound?
Answer: unaffected

Question: What about the total editing frequency [1] of the same compound?
Answer: unaffected

Question: What about the “sensitization to IR in rucaparib-pretreated cells” value (THP1 cells; WT THP1, 10 μM Rucaparib, 10Gy, 48 hours) of the same compound?
Answer: unable to further sensitize cells to IR

Question: What about the “sensitivity to ionizing radiation (cell survival)” value (THP1 cells; WT THP1, 10Gy, 48 hours) of the same compound?
Answer: more sensitive to ionizing radiation (IR)

Question: What about the THP1 cell proliferation (THP1 cells; WT THP1 post cGAMP treatment) of the same compound?
Answer: inhibited THP1 cell proliferation

Question: What about the EdU-positive cells [2] of the same compound?
Answer: diminished count of hRPE and STING-U2OS EdU-positive cells

Question: And the “abundance of cellular NAD^+” value (NAD^+)?
Answer: significantly reduced the abundance of cellular NAD^+ in a STING-dependent manner

Question: And the “dependence of cGAMP-induced G1 cell cycle arrest on STING, TBK1, IFNAR1, STAT2” value (cell cycle progression; STING−/−, shTBK1, shIFNAR1, shSTAT2 THP1)?
Answer: reliant on the former two signaling proteins (i.e. STING and TBK1), but occurs independently of IFNAR and STAT2

Question: What about the “G1 arrest in unperturbed and PARP-inhibited cells” value (cell cycle progression; WT THP1, 10 μM Rucaparib or vehicle, 24 hours) of the same compound?
Answer: promotes G1 arrest in both unperturbed as well as PARP-inhibited cells

Question: What about the “number of cells in the S-phase” value (cell cycle progression; WT THP1, BrdU, 24 hours) of the same compound?
Answer: decreased the number of cells in the S-phase

Question: What about the “proportion of cells in the G1 phase” value (cell cycle progression; WT THP1, BrdU, 24 hours) of the same compound?
Answer: substantially increased the proportion of cells arrested in the G1 phase

Question: And the “cGAMP-induced G1 arrest after p53 knockdown” value (cell cycle progression; shP53 U2OS-STING cells, 24 hours)?
Answer: abrogated the cGAMP-induced G1 arrest

Question: And the “HDR suppression by cGAMP in rucaparib-pretreated cells” value (HEK293-TrLR cells; 1 μM Rucaparib)?
Answer: ineffective at HDR suppression in cells pretreated with rucaparib

Question: What about the “HDR in ATM inhibitor treated cells, mock vs. cGAMP” value (HEK293-TrLR cells; 25 μM KU-55933) of the same compound?
Answer: still suppressed HDR

Question: What about the HDR frequency (HEK293-TrLR cells; I-SceI with donor, 72 hours) of the same compound?
Answer: significantly reduced the prevalence of HDR

Question: And the NHEJ frequency (HEK293-TrLR cells; I-SceI, 72 hours)?
Answer: unaffected in either case

Question: What about the “cGAMP-induced pan-nuclear γH2AX staining” value (γH2AX; WT, STING−/−, shIFNAR THP1 cells, 16 hours) of the same compound?
Answer: suppressed in STING^−/− but not in sh-IFNAR THP1 cells

Question: What about the γH2AX staining pattern (γH2AX; human RPE cells, doxorubicin 2 hours, cGAMP or HT-DNA 6 hours) of the same compound?
Answer: γH2AX marked by pan-nuclear staining
